Like-named read-outs stand apart in the source and are kept apart here.
Tests used:
[1] = design: method as in investigational brochures; conditions: ref investigational brochures; cited from earlier work
[2] = rat; cited from earlier work
[3] = Analyte stability in brain homogenate; format: physicochemical, human; conditions: for Freeze-thaw stability, Accuracy / Freeze-thaw stability, Difference: 3 cycles; for Freeze-thaw stability, Difference / Benchtop stability, Difference / Processed sample stability, Difference / Autosampler stability (5 °C), Difference / Long-term stability (−20 °C), Difference: vs freshly processed QC; for Benchtop stability, Accuracy / Benchtop stability, Difference: 6 h; for Processed sample stability, Accuracy / Processed sample stability, Difference: 22 h; for Autosampler stability (5 °C), Accuracy / Autosampler stability (5 °C), Difference: 96 h; for Long-term stability (−20 °C), Difference: 39 days
Experimental: The stability of the analytes was studied under various storage and processing conditions. […] Short- and long-term stability studies of all analytes were conducted in human blank plasma and brain homogenate under several storage conditions. Analyte stability in biological matrices was analyzed using freshly prepared calibration standards and QC samples. The percentage difference between the stability and freshly processed QC was also assessed. Re-injection reproducibility was evaluated within the sample stability period in the autosampler. Analytes were considered stable if the accuracy at each level was ±15.0% of the nominal value. Additionally, the difference from corresponding comparison QC samples must be within ±15.0%.

[4] = cited from earlier work
[5] = cited from earlier work; remark: listed apart in the source
[6] = Equilibrium dialysis, fraction unbound in brain homogenate; format: in vitro ADME, human; conditions: pH 7.4; human brain homogenate spiked at 20 and 200 nM; 16 h equilibrium dialysis; read-out: Fraction unbound (fu), Brain
Experimental: (§1) Equilibrium dialysis was employed to measure the fraction unbound of analytes in plasma, brain, and brain tumor tissue homogenates using 96-well DispoEquilibrium Dialyzer plates with a 10 kDa cut-off regenerated cellulose membrane. Dialysis was performed using 180 μL of human plasma or tissue homogenate against an equal volume of PBS (pH 7.4) in a dual-plate rotator (Harvard Apparatus, Holliston, MA, USA). Equilibrium time was initially optimized by analyzing samples after 2, 4, 6, 8, 16, and 24 h of dialysis at concentrations of 20 and 200 nM in human plasma and brain homogenate. The dialysates were collected and processed as described in Sections 2.3.2 and 2.3.3. The recovery of analytes was calculated as the ratio of analyte concentration after dialysis (sum of concentrations found in PBS and matrix fractions) to the total concentration to ensure the reliability and reproducibility of the assay. The experiments were repeated at least three times, and each sample in triplicate and average fraction unbound values were determined.
(§2) The fraction unbound in plasma (fu, plasma) and tissue homogenate (fu, hom) was evaluated as the analyte concentration ratio of post-dialysis PBS (cu) to post-dialysis plasma (cp, Eq. (1)) or homogenate (chom, Eq. (2)).(1) fu,plasma =cu/cp (2) fu,hom =cu/chom
(§3) The fraction unbound in the actual tissue (fu, tissue) was obtained by incorporating the unbound fraction in the tissue homogenate (fu, hom) and the dilution factor (Df) into Eq. (3).(3) fu,tissue = fu,hom/[Df - (Df - 1)fu,hom]

[7] = Equilibrium dialysis, fraction unbound in patient brain tumor tissue; format: in vitro ADME; conditions: human, five patients, 16 h equilibrium dialysis
Experimental: as §1, §2, §3
(§4) Unbound drug levels in the actual plasma and brain tumor tissue were measured using dialysis for 16 h to reach equilibrium. The mean of fraction unbound values determined in five patient samples was calculated.
The validated bioanalytical method was employed to investigate analytes pharmacokinetics in the plasma, brain tumor, and CSF in GBM patients (ClinicalTrials.gov identifier: NCT04391595). The protocol was reviewed and approved by the Institutional Review Board of the Barrow Neurological Institute, St. Joseph's Hospital and Medical Center (Phoenix, AZ, USA). All patients enrolled in the trial provided written informed consent. […] Blood, CSF, and GBM tissue (including gadolinium-contrast enhancing and non-enhancing regions) samples were obtained intra-operatively from each patient on the […] on the planned operation day. Blood was centrifuged at 4 °C and 3,000 r/min for 10 min; plasma was subsequently collected. Brain tumors were resected 7–9 h after the last dose was administered. Once resected, the tissue samples were rinsed with PBS, paper dried, and freshly frozen in liquid nitrogen. The samples were then stored at −80 °C in a freezer for later analysis.

[8] = Equilibrium dialysis, fraction unbound in plasma; format: in vitro ADME, human; conditions: pH 7.4, 16 h equilibrium dialysis
Experimental: as §1, §2, §4

[9] = mouse; cited from earlier work

Freeze-thaw stability, Accuracy ([3]; HQC 400.0 nM): 106.8%
Freeze-thaw stability, Difference ([3]; HQC 400.0 nM): −3.2%
Freeze-thaw stability, Accuracy ([3]; LQC 0.6 nM): 104.4%
Freeze-thaw stability, Difference ([3]; LQC 0.6 nM): −5.7%
Benchtop stability, Accuracy ([3]; HQC 400.0 nM): 97.3%
Benchtop stability, Difference ([3]; HQC 400.0 nM): −3.7%
Benchtop stability, Accuracy ([3]; LQC 0.6 nM): 108.3%
Benchtop stability, Difference ([3]; LQC 0.6 nM): 6.7%
Processed sample stability, Accuracy ([3]; HQC 400.0 nM): 99.6%
Processed sample stability, Difference ([3]; HQC 400.0 nM): −1.4%
Processed sample stability, Accuracy ([3]; LQC 0.6 nM): 104.5%
Processed sample stability, Difference ([3]; LQC 0.6 nM): 3.0%
Autosampler stability (5 °C), Accuracy ([3]; HQC 400.0 nM): 102.8%
Autosampler stability (5 °C), Difference ([3]; HQC 400.0 nM): 3.3%
Autosampler stability (5 °C), Accuracy ([3]; LQC 0.6 nM): 108.3%
Autosampler stability (5 °C), Difference ([3]; LQC 0.6 nM): 13.8%
Long-term stability (−20 °C), Difference ([3]; HQC 400.0 nM): −1.5%
Long-term stability (−20 °C), Difference ([3]; LQC 0.6 nM): −6.9%
fraction unbound at 16 h [6]: 0.013
fraction unbound at 16 h ([7]; pH 7.4, gadolinium contrast enhancing GBM region, read-out: Fraction unbound (fu), GBM (E)): 0.014
fraction unbound at 16 h ([7]; pH 7.4, gadolinium contrast non-enhancing GBM region, read-out: Fraction unbound (fu), GBM (NE)): 0.011
fraction unbound at 16 h ([8]; human, plasma of five GBM patients, read-out: Fraction unbound (fu), Plasma (patients)): 0.026
fraction unbound at 16 h ([8]; pooled human plasma spiked at 20 and 200 nM, read-out: Fraction unbound (fu), Plasma (pooled)): 0.026
SMILES: CCN1CCN(Cc2ccc(Nc3ncc(F)c(-c4cc(F)c5nc(C)n(C(C)C)c5c4)n3)nc2)CC1 [Abemaciclib]
pKa (strongest basic) [1]: 7.95
fu, brain [2]: 0.0043
fu, plasma (previously published) [4]: 0.027
Distribution (LogD, pH7.4), experimentally measured (value in parenthesis) ([5]; pH 7.4): 2.70
Lipophilicity, experimentally measured (value in parenthesis) ([5]; ref [12]): 3.36
fu, brain [9]: 0.0079

Source: publication PMC9463526 (Journal of Pharmaceutical Analysis, 2022)
